The record followed here is PubChem BioAssay (NCI).

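Five concentrations, 48 hours, 96-well plates. At the TGI there is no net growth.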

Among the test systems are A549 NSCLC; HCT-15 colon; LOX IMVI melanoma; MOLT-4 leukemia; NCI/ADR-RES ovarian; OVCAR-5 ovarian; RPMI-8226 leukemia; SF-539 CNS; SK-MEL-28 melanoma; SK-MEL-5 melanoma; SW-620 colon; U251 CNS; UACC-257 melanoma.
Experiment in all cases: NCI-60 cell line screen, 48 h

For `CC(C)C1OC(=O)/C=C/C=C/C=C/C=C/C=C/CC(O)CC(O)CC(O)CC(O)CC(O)CC(O)CC(O)CC(O)/C=C/C1C` (configuration not stated), the TGI in the test with A549 NSCLC, with HCT-15 colon, with LOX IMVI melanoma, with MOLT-4 leukemia, in the test with NCI/ADR-RES ovarian and in the test with OVCAR-5 ovarian was above 100 µM each time. Besides, the TGI in the test on RPMI-8226 leukemia, in the test with SF-539 CNS, in the test on SK-MEL-28 melanoma, in the test on SK-MEL-5 melanoma, in the test on SW-620 colon and in the test on U251 CNS was above 100 µM throughout. In the test with UACC-257 melanoma, this compound yielded a TGI above 100 µM.

Take `COc1ccccc1N1CCN(Cn2c(=O)oc3cccnc32)CC1`: the TGI in the test with A549 NSCLC, in the test on HCT-15 colon, in the test on LOX IMVI melanoma, in the test with MOLT-4 leukemia, with NCI/ADR-RES ovarian and in the test with OVCAR-5 ovarian was above 100 µM in each case. In addition, the TGI in the test with RPMI-8226 leukemia, with SF-539 CNS, in the test with SK-MEL-28 melanoma, in the test with SK-MEL-5 melanoma, with SW-620 colon and in the test on U251 CNS was above 100 µM throughout. This compound showed a TGI in the test with UACC-257 melanoma above 100 µM.

For the compound `COCCOCCOC1=C(Cl)C(=O)c2c(O)ccc(O)c2C1=O`, the TGI in the test with A549 NSCLC stood at 25.5 µM; in the test with HCT-15 colon, 3.42 µM; in the test with LOX IMVI melanoma, 4.59 µM; in the test on MOLT-4 leukemia, 2.37 µM; with NCI/ADR-RES ovarian, 9.14 µM; in the test with OVCAR-5 ovarian it was 22.6 µM. Moreover, the TGI in the test with RPMI-8226 leukemia worked out at 3.07 µM; in the test on SF-539 CNS, 3.69 µM; with SK-MEL-28 melanoma, 5.12 µM; in the test on SK-MEL-5 melanoma, 3.79 µM; in the test on SW-620 colon, 0.562 µM; in the test with U251 CNS it was 17.4 µM. In the test on UACC-257 melanoma, this compound displayed a TGI of 4.04 µM.

With `CCOC(=O)CCC(NC(=O)c1ccc(N2CCN(c3c(C)nc(N)nc3N)CC2)cc1)C(=O)OCC` (configuration not stated), the TGI in the test on A549 NSCLC, in the test on HCT-15 colon, in the test on LOX IMVI melanoma, in the test with MOLT-4 leukemia, with NCI/ADR-RES ovarian and in the test with OVCAR-5 ovarian was above 100 µM each time. For the same compound, the TGI is 6.94 µM with RPMI-8226 leukemia; above 100 µM with SF-539 CNS; above 47.4 µM in the test with SK-MEL-28 melanoma; 19.6 µM with SK-MEL-5 melanoma; above 100 µM in the test with SW-620 colon; above 100 µM in the test on U251 CNS. Also, in the test on UACC-257 melanoma, the TGI was above 55.9 µM.

Take `CSC1=C(c2ccc(Cl)cc2)SC(N2CCCCC2)N1c1ccc([N+](=O)[O-])cc1` (configuration not stated): the TGI in the test on A549 NSCLC is above 100 µM; in the test with HCT-15 colon, 89 µM; in the test on LOX IMVI melanoma, above 100 µM; in the test with MOLT-4 leukemia it was 75.9 µM; in the test on NCI/ADR-RES ovarian, 62.3 µM; with OVCAR-5 ovarian, 65.9 µM. Also, the TGI in the test with RPMI-8226 leukemia is 45.2 µM; in the test with SF-539 CNS, 56.5 µM; with SK-MEL-28 melanoma, above 100 µM; in the test with SK-MEL-5 melanoma, 29.9 µM; in the test with SW-620 colon, above 100 µM; in the test with U251 CNS, 56.4 µM. The compound also returned a TGI in the test with UACC-257 melanoma of 85.8 µM.

Turning to `O=C(N/N=C\c1ccc2ccccc2c1)Nc1ccc([N+](=O)[O-])cc1`, the TGI is above 85 µM with A549 NSCLC; above 72.6 µM with HCT-15 colon; above 100 µM in the test with LOX IMVI melanoma; 97.7 µM in the test on MOLT-4 leukemia; above 70.1 µM with NCI/ADR-RES ovarian; 62.9 µM with OVCAR-5 ovarian. The TGI in the test on RPMI-8226 leukemia was above 100 µM; in the test with SF-539 CNS, above 69.7 µM; in the test on SK-MEL-28 melanoma it was above 84.8 µM; in the test with SK-MEL-5 melanoma, above 70.4 µM; in the test with SW-620 colon, above 100 µM; in the test on U251 CNS, above 100 µM. The compound also showed a TGI in the test on UACC-257 melanoma above 75 µM.

Take `CCC(CCCC[C@@H]1CC[C@H]2CC(=O)C[C@@H]12)OC` (some centres not stated): the TGI with A549 NSCLC, in the test on HCT-15 colon, in the test with LOX IMVI melanoma, with MOLT-4 leukemia, in the test with NCI/ADR-RES ovarian and in the test with OVCAR-5 ovarian was above 100 µM each time. Besides, the TGI in the test with RPMI-8226 leukemia, with SF-539 CNS, in the test on SK-MEL-28 melanoma, in the test with SK-MEL-5 melanoma, with SW-620 colon and in the test with U251 CNS was above 100 µM throughout. This compound also came in with a TGI with UACC-257 melanoma above 100 µM.

For `CCOC(=O)C(NC(=O)Nc1ccc(Cl)c(Cl)c1)C(F)(F)F` (configuration not stated), the TGI in the test on A549 NSCLC, with HCT-15 colon, in the test with LOX IMVI melanoma, in the test on MOLT-4 leukemia, in the test with NCI/ADR-RES ovarian and in the test on OVCAR-5 ovarian was above 100 µM in each case. The TGI in the test on RPMI-8226 leukemia, in the test on SF-539 CNS, in the test on SK-MEL-28 melanoma, in the test with SK-MEL-5 melanoma, in the test on SW-620 colon and in the test on U251 CNS was above 100 µM in each case. The same compound gave a TGI in the test on UACC-257 melanoma above 100 µM.

With `COc1cccc(NC(=O)CC(=O)N2N=C(C)C(N=Nc3ccc(S(=O)(=O)c4ccc(N=NC5C(=O)N(C(=O)CC(=O)Nc6cccc(OC)c6)N=C5C)cc4)cc3)C2=O)c1` (configuration not stated), the TGI in the test with A549 NSCLC, in the test with HCT-15 colon, in the test with LOX IMVI melanoma, in the test with MOLT-4 leukemia, in the test with NCI/ADR-RES ovarian and in the test on OVCAR-5 ovarian was above 100 µM each time. For the same compound, the TGI in the test with RPMI-8226 leukemia, in the test with SF-539 CNS, in the test with SK-MEL-28 melanoma, with SK-MEL-5 melanoma, in the test with SW-620 colon and in the test on U251 CNS was above 100 µM in each case. In addition, the TGI in the test on UACC-257 melanoma is above 100 µM.
